We go through four compounds from patent US8026207B2, “Peptides and compositions for inhibiting fungal growth” (Japan Science and Technology Agency, priority 2005, dated 2011).

Data set [1] relates to human erythrocytes. Put plainly: Toxicity Test 1: hemolytic test using erythrocytes. In kind it is cell-based. Particulars: peptides 0.325-100 μM, FIG. 3. As to the method: A final concentration of the peptides was adjusted in a range of 0.325-100 μM, and the test was done using human erythrocytes in accordance with Nikawa H, Fukushima H, Makihira S, Hamada T, Samaranayake L P. Fungicidal effect of three new synthetic cationic peptides against Candida albicans. Oral Dis. 2004 July; 10(4): 221-8.

For data set [2], the system named is Candida. Particulars: cited from earlier work.
Data set [3] concerns C. albicans. Put plainly: Antifungal Test 1: survival of Candida by colony count after incubation with peptide. In kind it is cell-based. Particulars: for concentration showing a lethal ratio of 100%: Candida strain from oral cavity of a patient, 90 min at 37° C., colony count after 48 h. As to the method: The antifungal action against Candida was examined in order to confirm the antifungal effect of the present peptide. The peptide was synthesized by a conventional amino acid synthesis method using a peptide synthesizer manufactured by Shimazu Co. of Japan. The strain of Candida was isolated and provided from oral cavity of a patient in Glasgowden Hospital. The antifungal effect of the present peptide was evaluated using the above Candida strain according to the method of Edgerton et al (1998). Twenty μl of the suspension of C. albicans (1.8×10^5 cfu/mL) was mixed with the same amount of a peptide solution (0.325 μM-25 μM of the peptide concentration) and incubated for 90 min at 37° C. The reaction was stopped by adding Yeast Nitrogen Base medium. The resulting mixture was spread onto Sabouraud dextrose agar plate and incubated for 48 h at 37° C. The number of living strains was determined by colony count and survival percentage (%) was calculated in comparison with the number of colony (100%) obtained using 1 mM phosphate buffer as a control instead of the peptide solution.
The antifungal effect (∘) of the present peptide (JH8194Y) is compared with that of JH8194 (*) , His5:Histatin 5 ([…]:♦)(SEQ ID NO: 6), LFG: Bovine lactoferrin ([…]: ▪)fSEQ ID NO: 7), LFB frag (FKCRRWQWRMKKLG:▴)(SEQ ID NO: 8), and Dhvar 4: Histatin analog developed by Holland ACTA (KRLFKKLLFSLRKY: x)(SEQ ID NO: 9). The ordinate and abscissa axes of FIG. 1 indicate percentage survived of Candida, and the concentration of peptide, respectively.

Ends that are not written are not given here.

With `C[C@@H]1[C@H](O)[C@@H](C)/C=C/C=C/C=C/C=C/C=C/C=C/C=C/[C@H](O[C@@H]2O[C@H](C)[C@@H](O)[C@H](N)[C@@H]2O)C[C@@H]2O[C@](O)(C[C@@H](O)C[C@@H](O)[C@H](O)CC[C@@H](O)C[C@@H](O)CC(=O)O[C@H]1C)C[C@H](O)[C@H]2C(=O)O` [amphotericin B], in data set [1], the concentration eliciting hemolysis was at least 5 µM. In data set [2], the “Minimal Fungicidal Concentration” value was 5 µM.

On to “DSHEKRHHGYKRKFHEKHHSHRGY (Synthetic peptide Histatin 5) [basic antifungal peptide of the Histatin family existing in saliva]”, for which the “concentration showing a lethal ratio of 100%” value in data set [3] is above 50 µM.

With KRLFRRWQWRMKKY, in data set [3], the “concentration showing a lethal ratio of 100%” value turned out to be 2.5 µM. For the same compound, in data set [3] (FIG. 1), the “antifungal effect (comparison in words)” value was “much stronger antifungal effect than lactoferrin and lactoferrin B”.

Regarding KRLFRRWQWRY, in data set [3], the “concentration showing a lethal ratio of 100%” value turned out to be 1.25 µM.
